Data: patent publication US5747235A, “Silver halide light sensitive emulsion layer having enhanced photographic sensitivity” (Eastman Kodak Company, priority 1996, dated 1998)
Counter-ions that a name gives are not always drawn.

Key:
[1] = Example 2: photographic speed and fog, 365 nm exposure, acids vs corresponding esters, emulsion T-1; set-up: Fog: unit not given here; details: for Fog / S365: undyed; for S365: control=100
Description: This chemically sensitized emulsion was then used to prepare the experimental coating variations indicated in Table I. All of the experimental coating variations in Table I contained the hydroxybenzene 2,4-disulfocatechol (HB3) at a concentration of 13 mmole/mole Ag, added to the melt before the addition of any further addenda. The fragmentable electron donor compounds as indicated in Table I were added from an aqueous potassium bromide solution, or from a methanol solution, before additional water, gelatin, and surfactant were added to the emulsion melts.
(§1) For photographic evaluation, each of the coating strips was exposed for 0.1 sec to a 365 nm emission line of a Hg lamp filtered through a Kodak Wratten filter number 18A and a step wedge ranging in density from 0 to 4 density units in 0.2 density steps. The exposed film strips were developed for 6 min in Kodak Rapid X-ray Developer (KRX). S365, relative sensitivity at 365 nm, was evaluated at a density of 0.2 units above fog.
The coatings described in Table II all contain the hydroxybenzene, 2,4-disulfocatechol (HB3) at a concentration of 13 mmole/mole Ag, added to the melt before any further addenda.

[2] = Example 14: blue light sensitivity and fog after post-exposure bath, emulsion T-1; details: bathed after exposure
Description: Samples of the coating were exposed to a xenon flash of 10^-3 sec duration filtered through a 2.0 neutral density filter, Kodak Wratten filters 35 and 38A, and a step wedge ranging in density from 0 to 3 density units in 0.15 density steps. These conditions allowed only blue light to expose the coatings. After exposure, one sample of the coating was subjected to each of the following treatments:
B. Post-exposure bath for 15 min in a solution of 5.4×10^-4 M NaBr and 3.0'10^-6 M S-3 at pH=6.0. (Bath 1)
Post-exposure bath for 15 min in a solution of 5.4×10^-4 M NaBr and 1.5×10^-5 M S-3 at pH=6.0. (Bath 2)
The coatings subjected to the post-exposure baths were then rinsed to remove excess solution and all coatings were developed together for 6 min in Kodak Rapid X-ray Developer (KRX). Relative sensitivity to blue light, Sblue, was evaluated at a density of 0.15 units above fog.

[3] = Example 7: photographic speed and fog with/without HB3, 365 nm exposure, emulsion T-2
Description: as §1
An AgBrI tabular silver halide emulsion (Emulsion T-2) was prepared containing 4.05% total I distributed such that the central portion of the emulsion grains contained 1.5% I and the perimeter area contained substantially higher I, as described by Chang et. al., U.S. Pat. No. 5,314,793. […] This emulsion was precipitated using deionized gelatin. The emulsion was sulfur sensitized by adding 8.5×10^-6 mole 1,3-dicarboxymethyl-1,3-dimethyl-2-thiourea /mole Ag at 40° C.; the temperature was then raised to 60° C. at a rate of 5° C./3 min and the emulsions held for 20 min before cooling to 40° C. The chemically sensitized emulsion was then used to prepare coatings containing the fragmentable two-electron donor compounds. […] Where present, the blue sensitizing dye D-I or the red sensitizing dye D-II were added from methanol solution to the emulsion at 40° C. after the chemical sensitization and disulfocatechol addition. The fragmentable two-electron donor compounds were added to the emulsion at 40° C. and the coatings were prepared and tested as described in Example 1, except that the additional gelatin used to prepare the coatings described in Table III was deionized gelatin.
Where present the blue sensitizing dye D-I or the red sensitizing dye D-II were added from methanol solution to the emulsion at 40° C. after the chemical sensitization and disulfocatechol addition. The fragmentable two-electron donating compounds were then added to the emulsion and coatings prepared as described in Example 1, except that the additional gelatin used to prepare the coatings described in Table VII was deionized gelatin. The coatings were tested for their response to a 365 nm exposure as described in Example 1.

[4] = Example 13: photographic speed and fog, 365 nm exposure, cubic emulsion C-3; details: for Fog / S365: 0.02 x10^-3 mol/mol Ag
Description: as §1
A chloride containing cubic emulsion with uniform halide distribution was precipitated using deionized gelatin. Emulsion C-3 was an AgClI emulsion with a 1.5% I content and a cubic edge length of 0.36 μm. The emulsion was chemically sensitized by adding 15 mg of Au2 S/mole Ag using a gelatin dispersion. The chemical sensitizer was added to the emulsion at 40° C., the temperature was then raised to 60° C. and the emulsion held for 20 min before cooling back to 40° C. These experimental coating variations contained the hydroxybenzene, 2,4-disulfocatechcol (HB3) at a concentration of 13 mmole/mole Ag, added to the melt before the addition of any further compounds. Some of the variations were then dyed with the sensitizing dye D-I, added from methanol solution. The fragmentable electron donor compound S-9 was then added to the emulsion melts at 40° C. and coatings were prepared and tested as described in Example 1 except that the additional gelatin used to prepare the coatings described in Table XIII was deionized gelatin.

[5] = 0.007 x10^-3 mole/mole Ag, HB3 0, dye II 0.86 x10^-3
[6] = 0.007 x10^-3 mole/mole Ag, HB3 13 x10^-3, dye II 0.86 x10^-3
[7] = 0.007 x10^-3 mole/mole Ag, HB3 13 x10^-3, dye II 0.86 x10^-3, dyed control 68
[8] = 0.07 x10^-3 mole/mole Ag, HB3 0, dye I 0.91 x10^-3
[9] = 0.07 x10^-3 mole/mole Ag, HB3 0, no dye
[10] = 0.07 x10^-3 mole/mole Ag, HB3 0, no dye, control=100
[11] = 0.07 x10^-3 mole/mole Ag, HB3 13 x10^-3, dye I 0.91 x10^-3
[12] = 0.07 x10^-3 mole/mole Ag, HB3 13 x10^-3, dye I 0.91 x10^-3, dyed control 105
[13] = 0.07 x10^-3 mole/mole Ag, HB3 13 x10^-3, no dye
[14] = 0.07 x10^-3 mole/mole Ag, HB3 13 x10^-3, no dye, control=100

Row | SMILES | Fog [3, 5] | Fog [3, 6] | S365 [3, 7] | Fog [3, 8] | S365 [3, 8] | Fog [3, 9] | S365 [3, 10] | Fog [3, 11] | S365 [3, 12] | Fog [3, 13] | S365 [3, 14] | other results
1 | CCSCCN(c1ccc(C)cc1)[C@@H](C)C(=O)[O-].[Na+] [Compound S-3, N-(4-Methylphenyl)-N-(2-ethylthio-ethyl)alanine sodium salt] |  |  |  |  |  |  |  |  |  |  |  | Fog ([1]; 0.00220 x10^-3 mole/mole Ag): 0.07; S365 ([1]; 0.00220 x10^-3 mole/mole Ag): 110; Fog ([1]; 0.00700 x10^-3 mole/mole Ag): 0.06; S365 ([1]; 0.00700 x10^-3 mole/mole Ag): 120; Fog ([1]; 0.02200 x10^-3 mole/mole Ag): 0.11; S365 ([1]; 0.02200 x10^-3 mole/mole Ag): 141; Fog ([1]; 0.07000 x10^-3 mole/mole Ag): 0.57; Fog ([1]; 0.22000 x10^-3 mole/mole Ag): 1.24; speed and fog change ([1]; undyed T-1 emulsion): both speed and fog increases; sensitivity gain relative to unbathed coating [2]: ~2 X
2 | CCSCCN(c1ccc(C)cc1)C(CC(=O)O)C(=O)O (stereo not shown) [Compound S-8] | 0.21 | 0.15 | 112 | 0.12 | 155 | 0.16 | 159 | 0.12 | 120 | 0.13 | 162 | S365 [3, 5]: 110
3 | CCSCCN(c1ccccc1)C(C)C(=O)O (stereo not shown) [Compound S-9, N-(Phenyl)-N-(2-thioethyl-ethyl)alanine sodium salt] | 0.77 | 0.44 | 107 | 0.19 | 159 | 0.21 | 170 | 0.13 | 162 | 0.13 | 166 | Fog ([3]; 0.0022 x10^-3 mole/mole Ag, HB3 13 x10^-3, dye II 0.86 x10^-3): 0.24; S365 ([3]; 0.0022 x10^-3 mole/mole Ag, HB3 13 x10^-3, dye II 0.86 x10^-3, dyed control 68): 115; Fog ([4]; dye I 0.61 x10^-3): 0.14; S365 ([4]; dye I 0.61 x10^-3, dyed control 74): 129; Fog ([4]; no dye): 0.15; S365 ([4]; no dye, control=100): 118; speed increase ([4]; undyed AgClI cubic emulsion): 1.2 X
